{
  "source": "paper PMC7714403",
  "about": "(JCI Insight, 2020)",
  "key": {"[1]": {"tested_on": "cord blood CD34+ cells", "test": "CFU assay, normal cells", "assay_type": "cell-based, human", "conditions": "2 donors", "method": "For human primary CFU assays, cells were cultured in MethoCult H4035 Optimum without EPO (Stemcell Technologies). For mouse primary CFU assays, cells were directly cultured in MethoCult M3231 (Stemcell Technologies) supplemented with 45 ng/mL of murine IL-6 (mIL-6), mIL-3, and mSCF. Both human and mouse primary cells 10,000 cells were plated in duplicate for each drug concentration. For cell line CFU assays, MV4-11 cells were treated with drugs in the presence of 20 ng/mL IL-3, GM-CSF, or FGF2. Cells were plated in MethoCult H4230 (Stemcell Technologies) in duplicates at 250 cells/plate. Plates were placed in a 37°C incubator for 7 or 14 days for human cell lines and for mouse or human primary cells, respectively. Colonies were identified as clusters containing 40 or more cells. For CFU assays using human primary CD34^+ cells, umbilical cord blood was obtained from the OSU Comprehensive Cancer Center (CCC) Leukemia Tissue Bank Shared Resource, and mononuclear cells were isolated by using density gradient centrifugation. CD34^+ cells were purified using the CD34 UltraPure MicroBead Kit (Miltenyi Biotec) according to the manufacturer’s instructions. CFU assay with CD34^+ cells was performed as described above, and the total number of colonies were counted after 7–10 days."}, "[2]": {"tested_on": "ABL, ARG", "test": "KiNativ, MOLM13 live cells", "assay_type": "cell-based, human", "conditions": "100 nM, 2 hours", "method": "(§1) Samples were analyzed by KiNativ in situ kinase profiling by ActivX Biosciences."}, "[3]": {"tested_on": "AKT2, AKT3", "test": "KiNativ, MOLM13 live cells", "assay_type": "cell-based, human", "conditions": "100 nM, 2 hours; ATP Loop", "method": "as §1"}, "[4]": {"tested_on": "AMPKa1, AMPKa2", "test": "KiNativ, MOLM13 live cells", "assay_type": "cell-based, human", "conditions": "100 nM, 2 hours", "method": "as §1"}, "[5]": {"tested_on": "AurA, AurB, AurC", "test": "KiNativ, MOLM13 live cells", "assay_type": "cell-based, human", "conditions": "100 nM, 2 hours; ATP Loop", "method": "as §1"}, "[6]": {"tested_on": "CDK11, CDK8", "test": "KiNativ, MOLM13 live cells", "assay_type": "cell-based, human", "conditions": "100 nM, 2 hours; Lys2", "method": "as §1"}, "[7]": {"tested_on": "CK1g1, CK1g2, CK1g3", "test": "KiNativ, MOLM13 live cells", "assay_type": "cell-based, human", "conditions": "100 nM, 2 hours; ATP Loop", "method": "as §1"}, "[8]": {"tested_on": "CaMK2a, CaMK2b, CaMK2d, CaMK2g", "test": "KiNativ, MOLM13 live cells", "assay_type": "cell-based, human", "conditions": "100 nM, 2 hours; Lys2", "method": "as §1"}, "[9]": {"tested_on": "IKKe, TBK1", "test": "KiNativ, MOLM13 live cells", "assay_type": "cell-based, human", "conditions": "100 nM, 2 hours; Lys2", "method": "as §1"}, "[10]": {"tested_on": "JNK1, JNK2, JNK3", "test": "KiNativ, MOLM13 live cells", "assay_type": "cell-based, human", "conditions": "100 nM, 2 hours; Lys2", "method": "as §1"}, "[11]": {"tested_on": "KSR1, KSR2", "test": "KiNativ, MOLM13 live cells", "assay_type": "cell-based, human", "conditions": "100 nM, 2 hours; Activation Loop", "method": "as §1"}, "[12]": {"tested_on": "MAP2K1, MAP2K2", "test": "KiNativ, MOLM13 live cells", "assay_type": "cell-based, human", "conditions": "100 nM, 2 hours; Lys2", "method": "as §1"}, "[13]": {"tested_on": "MAP3K15, MAP3K5, MAP3K6", "test": "KiNativ, MOLM13 live cells", "assay_type": "cell-based, human", "conditions": "100 nM, 2 hours; Lys1", "method": "as §1"}, "[14]": {"tested_on": "MAP3K2, MAP3K3", "test": "KiNativ, MOLM13 live cells", "assay_type": "cell-based, human", "conditions": "100 nM, 2 hours; Lys2", "method": "as §1"}, "[15]": {"tested_on": "MAPKAPK2, MAPKAPK3", "test": "KiNativ, MOLM13 live cells", "assay_type": "cell-based, human", "conditions": "100 nM, 2 hours; Lys2", "method": "as §1"}, "[16]": {"tested_on": "MARK2, MARK3", "test": "KiNativ, MOLM13 live cells", "assay_type": "cell-based, human", "conditions": "100 nM, 2 hours; Lys2", "method": "as §1"}, "[17]": {"tested_on": "MSK1 domain1, MSK2 domain1", "test": "KiNativ, MOLM13 live cells", "assay_type": "cell-based, human", "conditions": "100 nM, 2 hours; ATP Loop", "method": "as §1"}, "[18]": {"tested_on": "MST1, MST2", "test": "KiNativ, MOLM13 live cells", "assay_type": "cell-based, human", "conditions": "100 nM, 2 hours; Lys2", "method": "as §1"}, "[19]": {"tested_on": "MST4, YSK1", "test": "KiNativ, MOLM13 live cells", "assay_type": "cell-based, human", "conditions": "100 nM, 2 hours; Lys2", "method": "as §1"}, "[20]": {"tested_on": "NDR1, NDR2", "test": "KiNativ, MOLM13 live cells", "assay_type": "cell-based, human", "conditions": "100 nM, 2 hours; Activation Loop", "method": "as §1"}, "[21]": {"tested_on": "NEK6, NEK7", "test": "KiNativ, MOLM13 live cells", "assay_type": "cell-based, human", "conditions": "100 nM, 2 hours; Lys2", "method": "as §1"}, "[22]": {"tested_on": "PCTAIRE1, PCTAIRE3", "test": "KiNativ, MOLM13 live cells", "assay_type": "cell-based, human", "conditions": "100 nM, 2 hours; Lys2", "method": "as §1"}, "[23]": {"tested_on": "PCTAIRE2, PCTAIRE3", "test": "KiNativ, MOLM13 live cells", "assay_type": "cell-based, human", "conditions": "100 nM, 2 hours; Lys1", "method": "as §1"}, "[24]": {"tested_on": "PI4KA, PI4KAP2", "test": "KiNativ, MOLM13 live cells", "assay_type": "cell-based, human", "conditions": "100 nM, 2 hours; ATP", "method": "as §1"}, "[25]": {"tested_on": "RSK1 domain1, RSK2 domain1, RSK3 domain1", "test": "KiNativ, MOLM13 live cells", "assay_type": "cell-based, human", "conditions": "100 nM, 2 hours; Lys2", "method": "as §1"}, "[26]": {"tested_on": "SRPK1, SRPK2", "test": "KiNativ, MOLM13 live cells", "assay_type": "cell-based, human", "conditions": "100 nM, 2 hours; Lys1", "method": "as §1"}, "[27]": {"tested_on": "TAO1, TAO3", "test": "KiNativ, MOLM13 live cells", "assay_type": "cell-based, human", "conditions": "100 nM, 2 hours; Lys2", "method": "as §1"}, "[28]": {"tested_on": "Wnk1, Wnk2, Wnk3", "test": "KiNativ, MOLM13 live cells", "assay_type": "cell-based, human", "conditions": "100 nM, 2 hours; Lys2", "method": "as §1"}, "[29]": {"tested_on": "Wnk1, Wnk2, Wnk4", "test": "KiNativ, MOLM13 live cells", "assay_type": "cell-based, human", "conditions": "100 nM, 2 hours; Activation Loop", "method": "as §1"}, "[30]": {"tested_on": "Wnk1, Wnk2", "test": "KiNativ, MOLM13 live cells", "assay_type": "cell-based, human", "conditions": "100 nM, 2 hours; ATP Loop", "method": "as §1"}, "[31]": {"tested_on": "ZC1/HGK, ZC2/TNIK, ZC3/MINK", "test": "KiNativ, MOLM13 live cells", "assay_type": "cell-based, human", "conditions": "100 nM, 2 hours; Lys2", "method": "as §1"}, "[32]": {"tested_on": "p38d, p38g", "test": "KiNativ, MOLM13 live cells", "assay_type": "cell-based, human", "conditions": "100 nM, 2 hours; Lys2", "method": "as §1"}, "[33]": {"target": "NEK8 (Homo sapiens, UniProt Q86SG6)", "sequence (Q86SG6 whole entry)": "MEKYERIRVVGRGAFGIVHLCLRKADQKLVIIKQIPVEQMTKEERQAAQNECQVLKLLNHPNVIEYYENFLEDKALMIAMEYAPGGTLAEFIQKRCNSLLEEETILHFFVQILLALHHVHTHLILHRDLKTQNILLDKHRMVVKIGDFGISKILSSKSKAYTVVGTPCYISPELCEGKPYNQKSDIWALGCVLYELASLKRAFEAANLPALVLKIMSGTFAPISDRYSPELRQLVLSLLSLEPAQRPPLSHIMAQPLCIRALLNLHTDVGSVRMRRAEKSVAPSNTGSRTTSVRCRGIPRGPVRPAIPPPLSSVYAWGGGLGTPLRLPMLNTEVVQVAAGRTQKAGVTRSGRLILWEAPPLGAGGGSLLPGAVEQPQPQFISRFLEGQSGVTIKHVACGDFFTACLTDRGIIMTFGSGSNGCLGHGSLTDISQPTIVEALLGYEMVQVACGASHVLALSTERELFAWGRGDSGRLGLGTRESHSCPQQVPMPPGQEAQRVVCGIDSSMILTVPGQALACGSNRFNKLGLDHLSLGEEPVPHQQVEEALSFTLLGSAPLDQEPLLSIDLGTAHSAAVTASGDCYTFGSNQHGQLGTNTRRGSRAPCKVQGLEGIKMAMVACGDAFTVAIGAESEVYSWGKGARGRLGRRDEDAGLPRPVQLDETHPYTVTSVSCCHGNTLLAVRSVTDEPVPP", "test": "KiNativ, OCI cells live cell", "assay_type": "cell-based", "conditions": "2 h, labeling site Lys2, peptide […]"}, "[34]": {"target": "PIP4K2B (Homo sapiens, UniProt P78356)", "sequence (P78356 whole entry)": "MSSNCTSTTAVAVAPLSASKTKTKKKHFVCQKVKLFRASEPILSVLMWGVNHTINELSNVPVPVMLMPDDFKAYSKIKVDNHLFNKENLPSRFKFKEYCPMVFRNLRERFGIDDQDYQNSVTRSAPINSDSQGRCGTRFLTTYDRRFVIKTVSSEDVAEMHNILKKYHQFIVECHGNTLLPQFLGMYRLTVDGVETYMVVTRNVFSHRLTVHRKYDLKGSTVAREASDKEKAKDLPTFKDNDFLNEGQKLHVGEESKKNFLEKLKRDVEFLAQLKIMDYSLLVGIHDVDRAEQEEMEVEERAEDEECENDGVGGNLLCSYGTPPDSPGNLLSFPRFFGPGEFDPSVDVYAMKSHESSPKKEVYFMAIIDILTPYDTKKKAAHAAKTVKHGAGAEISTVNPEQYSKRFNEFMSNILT", "test": "KiNativ, OCI cells live cell", "assay_type": "cell-based", "conditions": "2 h, labeling site ATP, peptide […]"}, "[35]": {"target": "T1, RSK1 domain2 (Homo sapiens, UniProt Q15418)", "T1 construct": "RSK1 domain2", "T1 sequence (Q15418 whole entry, the tested form may be a part)": "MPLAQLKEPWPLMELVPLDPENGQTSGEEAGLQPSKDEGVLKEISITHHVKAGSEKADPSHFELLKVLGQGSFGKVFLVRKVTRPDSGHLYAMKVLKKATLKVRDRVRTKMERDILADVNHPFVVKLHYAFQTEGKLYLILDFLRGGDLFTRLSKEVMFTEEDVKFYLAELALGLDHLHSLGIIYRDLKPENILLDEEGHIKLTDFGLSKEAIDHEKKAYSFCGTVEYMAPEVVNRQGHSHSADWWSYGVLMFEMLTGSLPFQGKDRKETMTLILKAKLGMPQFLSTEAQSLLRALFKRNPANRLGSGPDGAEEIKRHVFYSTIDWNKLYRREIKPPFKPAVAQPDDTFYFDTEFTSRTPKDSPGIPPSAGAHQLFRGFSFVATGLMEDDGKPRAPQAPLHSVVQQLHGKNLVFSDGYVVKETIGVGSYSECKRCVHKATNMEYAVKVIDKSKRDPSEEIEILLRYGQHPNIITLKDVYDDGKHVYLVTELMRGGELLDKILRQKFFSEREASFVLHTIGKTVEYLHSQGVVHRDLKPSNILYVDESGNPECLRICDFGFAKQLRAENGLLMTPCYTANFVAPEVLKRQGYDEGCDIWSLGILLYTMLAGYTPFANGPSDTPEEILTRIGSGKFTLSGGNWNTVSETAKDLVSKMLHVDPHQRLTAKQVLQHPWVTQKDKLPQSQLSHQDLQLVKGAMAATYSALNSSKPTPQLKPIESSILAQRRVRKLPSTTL", "test": "KiNativ, OCI cells live cell", "assay_type": "cell-based", "conditions": "2 h, labeling site Lys2, peptide […]"}, "[36]": {"tested_on": "Wnk1, Wnk2, Wnk4", "test": "KiNativ, OCI cells live cell", "assay_type": "cell-based, human", "conditions": "labeling site Activation Loop, peptide IGDLGLATLKR"}},
  "data": [
    {"smiles": "CN1CCN(Cc2ccc(Nc3ncc(Cl)c(Nc4ccccc4S(=O)(=O)N(C)C)n3)cc2)CC1", "note": "[TP-0903]", "values": [
      {"measurement": "Concentration inhibiting colony formation of CD34+ cells", "setting": "[1]", "value": 200, "unit": "nM"},
      {"measurement": "Inhibition vs DMSO", "setting": "[2]; Activation Loop", "value": 5.0, "unit": "%"},
      {"measurement": "Inhibition vs DMSO", "setting": "[2]; Lys1", "value": 24.5, "unit": "%"},
      {"measurement": "Inhibition vs DMSO", "setting": "[3]", "value": -63.3, "unit": "%"},
      {"measurement": "Inhibition vs DMSO", "setting": "[4]; Lys1", "value": 19.6, "unit": "%"},
      {"measurement": "Inhibition vs DMSO", "setting": "[4]; Lys2", "value": 33.8, "unit": "%"},
      {"measurement": "Inhibition vs DMSO", "setting": "[5]", "value": 68.0, "unit": "%"},
      {"measurement": "Inhibition vs DMSO", "setting": "[6]", "value": -1.1, "unit": "%"},
      {"measurement": "Inhibition vs DMSO", "setting": "[7]", "value": -28.7, "unit": "%"},
      {"measurement": "Inhibition vs DMSO", "setting": "[8]", "value": -2.0, "unit": "%"},
      {"measurement": "Inhibition vs DMSO", "setting": "[9]", "value": 74.5, "unit": "%"},
      {"measurement": "Inhibition vs DMSO", "setting": "[10]", "value": 18.9, "unit": "%"},
      {"measurement": "Inhibition vs DMSO", "setting": "[11]", "value": -11.7, "unit": "%"},
      {"measurement": "Inhibition vs DMSO", "setting": "[12]", "value": -17.4, "unit": "%"},
      {"measurement": "Inhibition vs DMSO", "setting": "[13]", "value": -11.5, "unit": "%"},
      {"measurement": "Inhibition vs DMSO", "setting": "[14]", "value": -4.2, "unit": "%"},
      {"measurement": "Inhibition vs DMSO", "setting": "[15]", "value": -22.0, "unit": "%"},
      {"measurement": "Inhibition vs DMSO", "setting": "[16]", "value": 37.1, "unit": "%"},
      {"measurement": "Inhibition vs DMSO", "setting": "[17]", "value": -6.6, "unit": "%"},
      {"measurement": "Inhibition vs DMSO", "setting": "[18]", "value": 41.2, "unit": "%"},
      {"measurement": "Inhibition vs DMSO", "setting": "[19]", "value": 39.6, "unit": "%"},
      {"measurement": "Inhibition vs DMSO", "setting": "[20]", "value": -0.8, "unit": "%"},
      {"measurement": "Inhibition vs DMSO", "setting": "[21]", "value": 7.8, "unit": "%"},
      {"measurement": "Inhibition vs DMSO", "setting": "[22]", "value": 81.4, "unit": "%"},
      {"measurement": "Inhibition vs DMSO", "setting": "[23]", "value": -8.3, "unit": "%"},
      {"measurement": "Inhibition vs DMSO", "setting": "[24]", "value": 11.9, "unit": "%"},
      {"measurement": "Inhibition vs DMSO", "setting": "[25]", "value": 15.9, "unit": "%"},
      {"measurement": "Inhibition vs DMSO", "setting": "[26]", "value": 21.8, "unit": "%"},
      {"measurement": "Inhibition vs DMSO", "setting": "[27]", "value": 9.9, "unit": "%"},
      {"measurement": "Inhibition vs DMSO", "setting": "[28]", "value": -31.8, "unit": "%"},
      {"measurement": "Inhibition vs DMSO", "setting": "[29]", "value": -35.0, "unit": "%"},
      {"measurement": "Inhibition vs DMSO", "setting": "[30]", "value": -30.2, "unit": "%"},
      {"measurement": "Inhibition vs DMSO", "setting": "[31]", "value": 50.7, "unit": "%"},
      {"measurement": "Inhibition vs DMSO", "setting": "[32]", "value": -8.7, "unit": "%"},
      {"measurement": "inhibition at 0.1 µM", "setting": "[33]", "value": -6.8, "unit": "%"},
      {"measurement": "inhibition at 0.1 µM", "setting": "[34]", "value": -24.4, "unit": "%"},
      {"measurement": "inhibition at 0.1 µM", "setting": "[35]", "value": 8.6, "unit": "%"},
      {"measurement": "Inhibition", "setting": "[36]", "value": -23.7, "unit": "%"}
    ]}
  ]
}
